Assay results taken from publication PMC5218480 (PLoS ONE, 2017).

System: MV-4-11 cells
Assay: Gene expression microarray analysis (Affymetrix PrimeView) and GSEA
Type: cell-based, human
Design: RFU PODN (11730768_x_at) / Fold change /veh PODN (11730768_x_at) / RFU LINC00158 (11744669_a_at) / Fold change /veh LINC00158 (11744669_a_at) / RFU DUSP10 (11751237_a_at) / Fold change /veh DUSP10 (11751237_a_at) / RFU ID3 (11757404_x_at) / Fold change /veh ID3 (11757404_x_at) / RFU PLEKHG5 (11737974_s_at) / Fold change /veh PLEKHG5 (11737974_s_at) / RFU LRRC4B (11730491_at) / Fold change /veh LRRC4B (11730491_at) / RFU GIMAP4 (11747438_a_at) / Fold change /veh GIMAP4 (11747438_a_at) / RFU KRT8 (11758183_x_at) / Fold change /veh KRT8 (11758183_x_at) / RFU CNN1 (11734310_a_at) / Fold change /veh CNN1 (11734310_a_at) / RFU VPS37D (11726825_at) / Fold change /veh VPS37D (11726825_at) / RFU C10orf10 (11716522_x_at) / Fold change /veh C10orf10 (11716522_x_at) / RFU KIR2DL2 /// KIR2DL4 /// KIR2DL5A /// KIR2DL5B /// KIR2DS1 /// KIR2DS2 /// KIR2DS3 /// KIR2DS4 /// KIR3DL3 /// KIR3DL3 /// KIR3DS1 (11738374_at) / Fold change /veh KIR2DL2 /// KIR2DL4 /// KIR2DL5A /// KIR2DL5B /// KIR2DS1 /// KIR2DS2 /// KIR2DS3 /// KIR2DS4 /// KIR3DL3 /// KIR3DL3 /// KIR3DS1 (11738374_at) / RFU C1QL1 (11718748_at) / Fold change /veh C1QL1 (11718748_at) / RFU TMPRSS4 (11747572_a_at) / Fold change /veh TMPRSS4 (11747572_a_at) / RFU HAMP (11756126_x_at) / Fold change /veh HAMP (11756126_x_at) / RFU RNFT2 (11725882_a_at) / Fold change /veh RNFT2 (11725882_a_at) / RFU NR4A2 (11747474_a_at) / Fold change /veh NR4A2 (11747474_a_at) / RFU ABCC12 (11746883_a_at) / Fold change /veh ABCC12 (11746883_a_at) / RFU TMEM136 (11760407_x_at) / Fold change /veh TMEM136 (11760407_x_at) / RFU CLDN22 /// WWC2 (11732394_at) / Fold change /veh CLDN22 /// WWC2 (11732394_at) / RFU HLA-DPB1 (11760878_x_at) / Fold change /veh HLA-DPB1 (11760878_x_at) / RFU SPINT1 (11716480_a_at) / Fold change /veh SPINT1 (11716480_a_at) / RFU GAP43 (11754022_s_at) / Fold change /veh GAP43 (11754022_s_at) / RFU A4GNT (11735810_at) / Fold change /veh A4GNT (11735810_at) / RFU PRB3 (11715151_x_at) / Fold change /veh PRB3 (11715151_x_at) / RFU TUBB4B (11761932_at) / Fold change /veh TUBB4B (11761932_at) / RFU CAPN14 (11732068_a_at) / Fold change /veh CAPN14 (11732068_a_at) / RFU TMCC2 (11721928_a_at) / Fold change /veh TMCC2 (11721928_a_at) / RFU IRGQ (11745062_a_at) / Fold change /veh IRGQ (11745062_a_at) / RFU FAM174B (11720279_a_at) / Fold change /veh FAM174B (11720279_a_at) / RFU TMPRSS4 (11748680_a_at) / Fold change /veh TMPRSS4 (11748680_a_at) / RFU FAM212B (11763350_a_at) / Fold change /veh FAM212B (11763350_a_at) / RFU PLEKHG5 (11743358_a_at) / Fold change /veh PLEKHG5 (11743358_a_at) / RFU ZSCAN30 (11745921_a_at) / Fold change /veh ZSCAN30 (11745921_a_at) / RFU CMKLR1 (11741424_a_at) / Fold change /veh CMKLR1 (11741424_a_at) / RFU LOC101060620 /// MAPK8IP1 (11723275_at) / Fold change /veh LOC101060620 /// MAPK8IP1 (11723275_at) / RFU SPTSSB (11747773_x_at) / Fold change /veh SPTSSB (11747773_x_at) / RFU PRSS12 (11739890_at) / Fold change /veh PRSS12 (11739890_at) / RFU BIN1 (11741810_x_at) / Fold change /veh BIN1 (11741810_x_at) / RFU WNT11 (11732464_a_at) / Fold change /veh WNT11 (11732464_a_at) / RFU C10orf10 (11716521_a_at) / Fold change /veh C10orf10 (11716521_a_at) / RFU C5orf56 (11738089_at) / Fold change /veh C5orf56 (11738089_at) / RFU CYB561 (11721691_x_at) / Fold change /veh CYB561 (11721691_x_at) / RFU ANKRD19P (11752326_a_at) / Fold change /veh ANKRD19P (11752326_a_at) / RFU OR2T12 /// OR2T33 /// OR2T8 (11738714_s_at) / Fold change /veh OR2T12 /// OR2T33 /// OR2T8 (11738714_s_at) / RFU VCAN (11748164_a_at) / Fold change /veh VCAN (11748164_a_at) / RFU JSRP1 (11732532_at) / Fold change /veh JSRP1 (11732532_at) / RFU KRTAP10-11 (11738290_x_at) / Fold change /veh KRTAP10-11 (11738290_x_at) / RFU MYO3A (11730013_a_at) / Fold change /veh MYO3A (11730013_a_at) / RFU EBF3 (11725865_a_at) / Fold change /veh EBF3 (11725865_a_at) / RFU CAMK2N1 (11719241_x_at) / Fold change /veh CAMK2N1 (11719241_x_at) / RFU C5orf56 (11738088_a_at) / Fold change /veh C5orf56 (11738088_a_at) / RFU OLFML3 (11715873_a_at) / Fold change /veh OLFML3 (11715873_a_at) / RFU LOC100653217 /// NTM (11731650_a_at) / Fold change /veh LOC100653217 /// NTM (11731650_a_at) / RFU MAPK11 (11762145_a_at) / Fold change /veh MAPK11 (11762145_a_at) / RFU FIZ1 (11724087_x_at) / Fold change /veh FIZ1 (11724087_x_at) / RFU OASL (11726364_x_at) / Fold change /veh OASL (11726364_x_at) / RFU SOX15 (11748057_x_at) / Fold change /veh SOX15 (11748057_x_at) / RFU CD79A (11719716_a_at) / Fold change /veh CD79A (11719716_a_at) / RFU HIST1H1D (11736915_at) / Fold change /veh HIST1H1D (11736915_at) / RFU CASKIN2 (11723855_a_at) / Fold change /veh CASKIN2 (11723855_a_at) / RFU LOC730098 (11760151_x_at) / Fold change /veh LOC730098 (11760151_x_at) / RFU OR4N2 (11742367_at) / Fold change /veh OR4N2 (11742367_at) / RFU PRRT2 (11749266_a_at) / Fold change /veh PRRT2 (11749266_a_at) / RFU SNX32 (11753110_a_at) / Fold change /veh SNX32 (11753110_a_at) / RFU CDHR5 (11726645_a_at) / Fold change /veh CDHR5 (11726645_a_at) / RFU RCAN1 (11760418_a_at) / Fold change /veh RCAN1 (11760418_a_at) / RFU FAM167A (11723789_a_at) / Fold change /veh FAM167A (11723789_a_at) / RFU FAM26E (11764081_at) / Fold change /veh FAM26E (11764081_at) / RFU ISYNA1 (11749810_s_at) / Fold change /veh ISYNA1 (11749810_s_at) / RFU ACY1 (11761880_at) / Fold change /veh ACY1 (11761880_at) / RFU 11764098_at / Fold change /veh 11764098_at / RFU SAMD14 (11745864_x_at) / Fold change /veh SAMD14 (11745864_x_at) / RFU NPB (11741838_a_at) / Fold change /veh NPB (11741838_a_at) / RFU TMPRSS6 (11731388_a_at) / Fold change /veh TMPRSS6 (11731388_a_at) / RFU KRTAP10-2 (11738614_at) / Fold change /veh KRTAP10-2 (11738614_at) / RFU ARHGAP8 /// PRR5-ARHGAP8 (11727945_x_at) / Fold change /veh ARHGAP8 /// PRR5-ARHGAP8 (11727945_x_at) / RFU KRTAP5-7 /// NADSYN1 (11734609_at) / Fold change /veh KRTAP5-7 /// NADSYN1 (11734609_at) / RFU RASL12 (11751679_a_at) / Fold change /veh RASL12 (11751679_a_at) / RFU CDKN2B (11736163_a_at) / Fold change /veh CDKN2B (11736163_a_at) / RFU PRF1 (11729649_at) / Fold change /veh PRF1 (11729649_at) / RFU, ZNF638 /// ZNF638-IT1 / Fold change vs veh, ZNF638 /// ZNF638-IT1 / RFU, PANK3 / Fold change vs veh, PANK3 / RFU, SH3YL1 / Fold change vs veh, SH3YL1 / RFU, ZEB2 / Fold change vs veh, ZEB2 / RFU, NRIP1 / Fold change vs veh, NRIP1 / RFU, PTTG1IP / Fold change vs veh, PTTG1IP / RFU, CAPN2 / Fold change vs veh, CAPN2 / RFU, MED14 / Fold change vs veh, MED14 / RFU, SNORA58 / Fold change vs veh, SNORA58 / RFU, C1orf63 / Fold change vs veh, C1orf63 / RFU, LRRFIP1 / Fold change vs veh, LRRFIP1 / RFU, NDUFAF7 / Fold change vs veh, NDUFAF7 / RFU, SLC12A2 / Fold change vs veh, SLC12A2 / RFU, IBTK / Fold change vs veh, IBTK / RFU, ESF1 / Fold change vs veh, ESF1 / Fold change vs veh, TMEM50B / RFU, TAOK1 / Fold change vs veh, TAOK1 / RFU, ACBD3 / Fold change vs veh, ACBD3 / RFU, TMA16 / Fold change vs veh, TMA16 / RFU, RWDD3 / Fold change vs veh, RWDD3 / RFU, BCAT1 / Fold change vs veh, BCAT1 / RFU, EDEM3 / Fold change vs veh, EDEM3 / RFU, TMEM33 / Fold change vs veh, TMEM33 / RFU, WDR75 / Fold change vs veh, WDR75 / RFU, AHCTF1 / Fold change vs veh, AHCTF1 / RFU, TFRC / Fold change vs veh, TFRC / RFU, ZDHHC17 / Fold change vs veh, ZDHHC17 / RFU, NOM1 / Fold change vs veh, NOM1 / RFU, ARL8B / Fold change vs veh, ARL8B / RFU, ZBTB11 / Fold change vs veh, ZBTB11 / RFU, TAMM41 / Fold change vs veh, TAMM41 / RFU, KIAA1704 /// LOC100996395 / Fold change vs veh, KIAA1704 /// LOC100996395 / RFU, ING1 / Fold change vs veh, ING1 / RFU, TRMT61B / Fold change vs veh, TRMT61B / RFU, FUBP3 / Fold change vs veh, FUBP3 / RFU, TP53 / Fold change vs veh, TP53 / RFU, TNKS2 / Fold change vs veh, TNKS2 / RFU, ZFP14 / Fold change vs veh, ZFP14 / RFU, ACTR2 / Fold change vs veh, ACTR2 / RFU, PPP3R1 / Fold change vs veh, PPP3R1 / RFU, PIK3R1 / Fold change vs veh, PIK3R1 / RFU, HNRNPA1 / Fold change vs veh, HNRNPA1 / RFU, RNF170 / Fold change vs veh, RNF170 / RFU, ZNF28 / Fold change vs veh, ZNF28 / RFU, RNGTT / Fold change vs veh, RNGTT / RFU, OGT / Fold change vs veh, OGT / RFU, BRD1 / Fold change vs veh, BRD1 / RFU, MARS / Fold change vs veh, MARS / RFU, ZNF655 / Fold change vs veh, ZNF655 / RFU, FAHD1 / Fold change vs veh, FAHD1 / RFU, BDP1 / Fold change vs veh, BDP1 / RFU, LRRCC1 / Fold change vs veh, LRRCC1 / RFU, ARID1A / Fold change vs veh, ARID1A / RFU, ZNF146 / Fold change vs veh, ZNF146 / RFU, ZNF330 / Fold change vs veh, ZNF330 / RFU, GPN3 / Fold change vs veh, GPN3 / RFU, C9orf123 / Fold change vs veh, C9orf123 / RFU, N4BP2L2 / Fold change vs veh, N4BP2L2 / RFU, ARFIP1 / Fold change vs veh, ARFIP1 / RFU, FAM179B / Fold change vs veh, FAM179B / RFU, BCL10 / Fold change vs veh, BCL10 / RFU, UHRF1BP1L / Fold change vs veh, UHRF1BP1L / RFU, BET1 / Fold change vs veh, BET1 / RFU, CNOT2 / Fold change vs veh, CNOT2 / RFU, ZNF268 / Fold change vs veh, ZNF268 / Fold change vs veh, ZNF507 / RFU, DGCR2 / Fold change vs veh, DGCR2 / RFU, WDSUB1 / Fold change vs veh, WDSUB1 / Fold change vs veh, HSP90B1 /// MIR3652 / RFU, ADSS / Fold change vs veh, ADSS / RFU, GK / Fold change vs veh, GK / RFU, ZNF148 / Fold change vs veh, ZNF148 / RFU, TAF9 / Fold change vs veh, TAF9 / RFU, SLC1A5 / Fold change vs veh, SLC1A5 / RFU, SLMO2 / Fold change vs veh, SLMO2 / RFU, ABCC4 / Fold change vs veh, ABCC4 / RFU, LOC101060439 /// RAP1B / Fold change vs veh, LOC101060439 /// RAP1B / RFU, RFX7 / Fold change vs veh, RFX7 / RFU, GTPBP10 / Fold change vs veh, GTPBP10 / RFU, CNEP1R1 / Fold change vs veh, CNEP1R1 / RFU, BIVM-ERCC5 /// ERCC5 / Fold change vs veh, BIVM-ERCC5 /// ERCC5 / RFU, ILF3 / Fold change vs veh, ILF3 / RFU 11762660_at / Fold change /veh 11762660_at / RFU VCAN (11757783_s_at) / Fold change /veh VCAN (11757783_s_at) / RFU DDX43 (11728927_at) / Fold change /veh DDX43 (11728927_at) / RFU KRT8 (11758188_x_at) / Fold change /veh KRT8 (11758188_x_at) / RFU NKD1 (11759106_at) / Fold change /veh NKD1 (11759106_at) / RFU SRD5A1 (11742802_a_at) / Fold change /veh SRD5A1 (11742802_a_at) / RFU TPSAB1 /// TPSB2 (11721975_s_at) / Fold change /veh TPSAB1 /// TPSB2 (11721975_s_at) / RFU GSTM3 (11746129_a_at) / Fold change /veh GSTM3 (11746129_a_at) / RFU IL23R (11737362_x_at) / Fold change /veh IL23R (11737362_x_at) / RFU TMEM51 (11727254_a_at) / Fold change /veh TMEM51 (11727254_a_at) / RFU PIWIL2 (11732686_x_at) / Fold change /veh PIWIL2 (11732686_x_at) / RFU ORM1 (11744905_x_at) / Fold change /veh ORM1 (11744905_x_at) / RFU CCDC152 (11743942_at) / Fold change /veh CCDC152 (11743942_at) / RFU ECM1 (11717891_a_at) / Fold change /veh ECM1 (11717891_a_at) / RFU IL23R (11748794_a_at) / Fold change /veh IL23R (11748794_a_at) / RFU TNFAIP8L3 (11732012_x_at) / Fold change /veh TNFAIP8L3 (11732012_x_at) / RFU MBOAT4 (11741988_at) / Fold change /veh MBOAT4 (11741988_at) / RFU 11764193_at / Fold change /veh 11764193_at / RFU TMEM53 (11763286_at) / Fold change /veh TMEM53 (11763286_at) / RFU MAGEB2 (11727129_at) / Fold change /veh MAGEB2 (11727129_at) / RFU TMEM200A (11744735_a_at) / Fold change /veh TMEM200A (11744735_a_at) / RFU CCDC152 (11751479_a_at) / Fold change /veh CCDC152 (11751479_a_at) / RFU FAM211A (11726209_a_at) / Fold change /veh FAM211A (11726209_a_at) / RFU RGS16 (11746705_a_at) / Fold change /veh RGS16 (11746705_a_at) / RFU VCAN (11755009_s_at) / Fold change /veh VCAN (11755009_s_at) / RFU RHOB (11743442_s_at) / Fold change /veh RHOB (11743442_s_at) / RFU RGS16 (11720943_a_at) / Fold change /veh RGS16 (11720943_a_at) / RFU RGS16 (11720944_at) / Fold change /veh RGS16 (11720944_at) / RFU, VPS4B / Fold change vs veh, VPS4B / RFU, CREB1 / Fold change vs veh, CREB1 / RFU, DNAJC13 / Fold change vs veh, DNAJC13 / RFU, GNAQ / Fold change vs veh, GNAQ / RFU, CDK5R1 / Fold change vs veh, CDK5R1 / RFU, ZRANB3 / Fold change vs veh, ZRANB3 / RFU, CUL4A / Fold change vs veh, CUL4A / RFU, CCNY / Fold change vs veh, CCNY / RFU, UFL1 / Fold change vs veh, UFL1 / RFU, COG3 / Fold change vs veh, COG3 / RFU, DIAPH2 / Fold change vs veh, DIAPH2 / RFU, SKA2 / Fold change vs veh, SKA2 / RFU, AFF3 / Fold change vs veh, AFF3 / RFU, LMF1 / Fold change vs veh, LMF1 / RFU, IPO11 / Fold change vs veh, IPO11 / RFU, DFFB / Fold change vs veh, DFFB / RFU, FOXP1 / Fold change vs veh, FOXP1 / RFU, CARD8 / Fold change vs veh, CARD8 / RFU, STRN3 / Fold change vs veh, STRN3 / RFU, ADK / Fold change vs veh, ADK / RFU, RASSF2 / Fold change vs veh, RASSF2 / RFU, WIPF1 / Fold change vs veh, WIPF1 / RFU, LARP1B / Fold change vs veh, LARP1B / RFU, RASA1 / Fold change vs veh, RASA1 / RFU, RB1 / Fold change vs veh, RB1 / RFU, PPFIA1 / Fold change vs veh, PPFIA1 / RFU, MAT2A / Fold change vs veh, MAT2A / RFU, CCT5 / Fold change vs veh, CCT5 / RFU, WDR92 / Fold change vs veh, WDR92 / RFU, CUX1 / Fold change vs veh, CUX1 / RFU, TTC7A / Fold change vs veh, TTC7A / RFU, TMEM135 / Fold change vs veh, TMEM135 / RFU, DEPTOR / Fold change vs veh, DEPTOR / RFU, CPM / Fold change vs veh, CPM / RFU, DNAJB6 / Fold change vs veh, DNAJB6 / RFU, CACNA2D3 / Fold change vs veh, CACNA2D3 / RFU, DTX4 / Fold change vs veh, DTX4 / RFU, TFCP2 / Fold change vs veh, TFCP2 / RFU, GMCL1 /// GMCL1P1 / Fold change vs veh, GMCL1 /// GMCL1P1 / RFU, AEBP2 / Fold change vs veh, AEBP2 / RFU, SNHG1 /// SNORD22 /// SNORD25 /// SNORD26 /// SNORD27 /// SNORD28 /// SNORD29 /// SNORD31 / Fold change vs veh, SNHG1 /// SNORD22 /// SNORD25 /// SNORD26 /// SNORD27 /// SNORD28 /// SNORD29 /// SNORD31 / Fold change (Aza/veh), C12orf56 (ProbeSet 11735607_a_at) / Fold change (ACY-1035/veh), C12orf56 (ProbeSet 11735607_a_at) / Fold change (Aza/veh), FGFR1OP (ProbeSet 11751329_s_at) / Fold change (ACY-1035/veh), FGFR1OP (ProbeSet 11751329_s_at) / Fold change (Aza/veh), VPS36 (ProbeSet 11739960_a_at) / Fold change (ACY-1035/veh), VPS36 (ProbeSet 11739960_a_at) / RFU SYPL1 (11715823_x_at) / Fold change /veh SYPL1 (11715823_x_at) / RFU IGFBP7 (11715501_s_at) / Fold change /veh IGFBP7 (11715501_s_at) / RFU REEP3 (11722064_at) / Fold change /veh REEP3 (11722064_at) / RFU IGLL1 (11728026_x_at) / Fold change /veh IGLL1 (11728026_x_at): dose or concentration left out as unconfirmed
Conditions: ProbeSet 11741199_a_at; LIST B

Question: `Nc1ncn([C@@H]2O[C@H](CO)[C@@H](O)[C@H]2O)c(=O)n1` [azacitidine] was tested. Which “RFU, LRRCC1” value did it give?
Answer: 65.24 RFU
